Test results published in publication PMC2862727 (Molecular immunology, 2010).
“Also recorded” adds a separate entry of the source. Blank lines part the entries; values can stand above or below the molecule they belong to.

Experiments:
[1] = test system: IL-1β production in THP-1 cells; assay: IL-1β immunoblot of THP-1 cell lysates; details: for effect of inhibitor or antagonist alone on IL-1β generation: absence of receptor agonist, data not shown
[2] = molecular target: β-AR mediating cAMP production in THP-1 cells (Homo sapiens, UniProt P08588); assay: Iso-induced cAMP production in THP-1 cells, Schild regression analysis; type: cell-based; details: inhibition of Iso mediated cAMP production in THP-1 cells, n = 4
β-AR mediating cAMP production in THP-1 cells, sequence (P08588 whole entry): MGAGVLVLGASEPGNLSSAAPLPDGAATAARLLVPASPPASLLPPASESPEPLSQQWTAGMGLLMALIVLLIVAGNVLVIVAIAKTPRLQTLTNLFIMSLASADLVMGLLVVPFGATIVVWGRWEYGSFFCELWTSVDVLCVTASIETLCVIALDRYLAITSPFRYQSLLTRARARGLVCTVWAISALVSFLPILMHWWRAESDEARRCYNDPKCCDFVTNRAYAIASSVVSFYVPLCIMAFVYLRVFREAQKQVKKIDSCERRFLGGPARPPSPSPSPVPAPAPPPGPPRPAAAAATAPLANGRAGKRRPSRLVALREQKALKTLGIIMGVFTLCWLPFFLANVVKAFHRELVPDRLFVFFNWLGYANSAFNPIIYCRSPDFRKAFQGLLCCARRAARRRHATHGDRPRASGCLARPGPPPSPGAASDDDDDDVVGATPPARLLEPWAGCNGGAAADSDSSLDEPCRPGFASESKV

[3] = test system: specific ^125I-CYP binding sites on THP-1 membranes; details: one-site binding model, ref Talmadge, et al., 1993; cited from earlier work
[4] = test system: secreted IL-1β from THP-1 cells; assay: ELISA of IL-1β secreted into media of THP-1 cells; type: cell-based, human; details: for secreted IL-1β in media: 2 h
[5] = test system: IL-1β production in primary human monocytes; assay: IL-1β immunoblot of primary human monocyte lysates; type: cell-based; details: individual treatment (30 ng/mL LPS or 0.1 μM Iso alone), n = 3
[6] = test system: inflammatory mediators secreted by THP-1 cells; assay: Cytokine antibody array of conditioned media from THP-1 cells; type: cell-based, human; details: 2 h, n = 3
[7] = test system: β-AR binding sites on THP-1 cell membranes; assay: Saturation radioligand binding of 125I-CYP on crude THP-1 cell membranes; set-up: species or system human; details: THP-1 membranes, n = 6
[8] = individual treatment (30 ng/mL LPS or 0.1 μM Iso alone), n = 6, control 1.6 ± 0.5 pg/mL
[9] = 30 ng/mL LPS and 0.1 μM Iso simultaneously

Molecule: Cn1cc(C(F)(F)F)nc1-c1ccc(OCC(O)CNCCOc2ccc(O)c(C(N)=O)c2)cc1 (stereo not shown) [CGP 20712A, 1-(2-((3-carbamoyl-4-hydroxy)phenoxy)ethylamino)-3-(4-(1-methyl-4-trifluoromethyl-2-imidazoylyl)phenoxy)-2-propanol methanesulfonate]
effect of inhibitor or antagonist alone on IL-1β generation ([1]; THP-1 cells): no qualitative changes

Molecule: Cc1ccc(OCC(O)C(C)NC(C)C)c2c1CCC2 (racemic) [ICI 118,551, erythro-dl-1-(7-methylindan-4-yloxy)-3-isopropylaminobutan-2-ol]
Schild regression slope [2]: 1.0 ± 0.1
effect of inhibitor or antagonist alone on IL-1β generation ([1]; THP-1 cells): no qualitative changes
Ki [3]: 46 nM

Molecule: lipopolysaccharide [LPS]
IL-1β produced, fold over basal ([1]; THP-1 lysates, individual treatment (30 ng/mL LPS or 0.1 μM Iso alone), 2 hr, n = 5): 12.1 ± 3.9 fold
secreted IL-1β in media [4, 8]: 16.9 ± 2.6 pg/mL
IL-1β produced, fold over basal [5]: 3.4 ± 1.8 fold
expression of secreted IL-1β and TNF-α versus control ([6]; 30 ng/mL LPS only): qualitative increase

Kd ([7]; read-out: equilibrium dissociation constant (Kd) of 125I-CYP, saturation binding): 0.0301 ± 0.0051 nM
Molecule: CC(C)(C)NCC(O)COc1cccc2[nH]c(C#N)c(I)c12 (single isomer, unassigned; (-)) [^125I-CYP, (–)3-[^125I]iodocyanopindolol]

Molecule: Cl.Cl.O=S(=O)(NCCNCC=Cc1ccc(Br)cc1)c1cccc2cnccc12 [H-89, N-[2-(p-bromocinnamylamino)ethyl]-5-isoquinolinesulfonamide dihydrochloride]
effect of inhibitor or antagonist alone on IL-1β generation ([1]; THP-1 cells): did not alter responses
IL-1β produced, fold over LPS ([1]; THP-1 lysates, 100 nM H-89 pre-incubation then 30 ng/mL LPS plus 0.1 μM Iso (Fig 7), n = 6): 1.4±0.1 fold over LPS

number of binding sites (Bmax) ([7]; labeled by 125I-CYP): 341 ± 77 fmol/mg protein
Molecule: CC(C)(C)NCC(O)COc1cccc2[nH]c(C#N)c([125I])c12 (single isomer, unassigned; (-)) [^125I-CYP, (–)3-[^125I]iodocyanopindolol]

Molecule: CC(C)NCC(O)c1ccc(O)c(O)c1 (stereo not shown) [Iso, isoproterenol]
synergistic modulation of LPS mediated production of IL-1β ([1]; THP-1 cells, LPS plus Iso versus LPS alone): > 4 fold
difference in IL-1β released into media between LPS alone and LPS plus Iso [4]: > 4 fold
secreted IL-1β in media ([4]; 0.1 μM Iso plus 30 ng/mL LPS, n = 6): 76.3 ± 24.7 pg/mL
secreted IL-1β in media [4, 8]: 4.8 ± 1.4 pg/mL
LPS mediated TNF-α expression versus LPS alone [6, 9]: qualitative loss; also recorded: decreases
soluble IL-1β versus LPS stimulation alone [6, 9]: qualitative increase
expression pattern of inflammatory mediators versus basal ([6]; 0.1 μM Iso only): no differences in the expression pattern
